# Data from patent US20100105655A1, “NOVEL COMPOUNDS 515” (ASTRAZENECA AB, priority 2008, published 2010).
# Target: T1, IGFR kinase (Homo sapiens, UniProt P08069)
# T1 construct: purchased Millipore
# Assay: Enzyme assay (c), IGFR kinase, Caliper LabChip
# Type: biochemical
# Conditions: not given
# T1 sequence (P08069 31-1367): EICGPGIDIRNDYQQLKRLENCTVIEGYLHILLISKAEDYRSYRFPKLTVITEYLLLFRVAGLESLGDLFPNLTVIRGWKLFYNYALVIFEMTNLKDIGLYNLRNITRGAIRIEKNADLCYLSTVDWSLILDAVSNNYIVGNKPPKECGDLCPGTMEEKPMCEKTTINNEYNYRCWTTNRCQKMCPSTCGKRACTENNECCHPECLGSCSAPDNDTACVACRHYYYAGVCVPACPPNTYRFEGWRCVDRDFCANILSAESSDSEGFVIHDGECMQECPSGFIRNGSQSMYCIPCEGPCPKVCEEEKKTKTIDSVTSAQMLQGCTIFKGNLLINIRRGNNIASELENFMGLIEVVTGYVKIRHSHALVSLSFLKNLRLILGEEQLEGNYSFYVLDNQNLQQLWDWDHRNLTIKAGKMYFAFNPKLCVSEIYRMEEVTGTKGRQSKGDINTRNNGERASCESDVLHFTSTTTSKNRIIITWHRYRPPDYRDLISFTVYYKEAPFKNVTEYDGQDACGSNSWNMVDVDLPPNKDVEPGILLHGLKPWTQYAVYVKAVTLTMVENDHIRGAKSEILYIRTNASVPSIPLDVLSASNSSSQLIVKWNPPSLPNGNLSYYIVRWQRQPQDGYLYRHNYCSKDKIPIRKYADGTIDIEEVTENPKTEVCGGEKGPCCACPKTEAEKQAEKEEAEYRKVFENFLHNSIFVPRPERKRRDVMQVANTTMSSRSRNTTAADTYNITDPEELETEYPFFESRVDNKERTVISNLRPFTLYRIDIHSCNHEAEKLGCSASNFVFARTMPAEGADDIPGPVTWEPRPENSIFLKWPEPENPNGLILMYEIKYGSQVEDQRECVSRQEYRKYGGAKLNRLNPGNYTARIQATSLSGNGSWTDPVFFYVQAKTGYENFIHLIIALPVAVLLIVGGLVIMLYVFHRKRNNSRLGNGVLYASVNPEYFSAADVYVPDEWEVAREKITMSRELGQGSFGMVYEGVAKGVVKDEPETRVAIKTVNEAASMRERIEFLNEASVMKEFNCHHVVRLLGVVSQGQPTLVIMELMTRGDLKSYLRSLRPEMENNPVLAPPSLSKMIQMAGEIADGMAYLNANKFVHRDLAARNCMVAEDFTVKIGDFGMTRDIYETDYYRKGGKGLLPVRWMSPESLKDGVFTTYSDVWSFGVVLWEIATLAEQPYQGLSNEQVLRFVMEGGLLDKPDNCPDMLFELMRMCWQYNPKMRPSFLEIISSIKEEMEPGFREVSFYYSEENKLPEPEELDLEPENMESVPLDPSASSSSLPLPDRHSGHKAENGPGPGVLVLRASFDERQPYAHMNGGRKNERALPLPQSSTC
row,IC50,Structure (SMILES)
1,19 nM,"COc1cc(N2CC3CN(CCCO)CC(C2)O3)ccc1Nc1ncc(Cl)c(-c2cnc3c(F)cccn23)n1 [Example 204, 3-[7-[4-[[5-chloro-4-(8-fluoroimidazo[1,2-a]pyridin-3-yl)pyrimidin-2-yl]amino]-3-methoxy-phenyl]-9-oxa-3,7-diazabicyclo[3.3.1]nonan-3-yl]propan-1-ol]"

# Same assay, conditions: 30 nM IGFR kinase, 6 uM ATP, 3 uM peptide mix; read-out: IGFR IC50
row,Structure (SMILES),IC50
1,"COc1cc(N(C)CC(=O)N(C)C)ccc1Nc1ncc(Cl)c(-c2cnc3c(F)cccn23)n1 [Example 225, 2-[4-[[5-chloro-4-(8-fluoroimidazo[1,2-a]pyridin-3-yl)pyrimidin-2-yl]amino]-3-methoxy-N-methyl-anilino]-N,N-dimethyl-acetamide]",130 nM
2,"COc1cc2c(cc1Nc1ncc(F)c(-c3cnn4ccccc34)n1)N(C(=O)CN(C)C)CC2 [Example 176, 2-(dimethylamino)-1-[6-[(5-fluoro-4-pyrazolo[1,5-a]pyridin-3-yl-pyrimidin-2-yl)amino]-5-methoxy-indolin-1-yl]ethanone]",22 nM
3,"COc1cc(N2CCN(C[C@@H](O)CO)CC2)ccc1Nc1ncc(Cl)c(-c2cnc3ccccn23)n1 [Example 53, (2R)-3-[4-[4-[(5-chloro-4-imidazo[1,2-a]pyridin-3-yl-pyrimidin-2-yl)amino]-3-methoxy-phenyl]piperazin-1-yl]propane-1,2-diol]",8 nM
4,"COc1cc(N2CC[C@H](O)C2)ccc1Nc1ncc(F)c(-c2cnc3ccccn23)n1 [Example 83, (3S)-1-[4-[(5-fluoro-4-imidazo[1,2-a]pyridin-3-yl-pyrimidin-2-yl)amino]-3-methoxy-phenyl]pyrrolidin-3-ol]",167 nM
5,"COc1cc(N2CCN(C[C@H](C)O)CC2)ccc1Nc1ncc(F)c(-c2cnc3ccccn23)n1 [Example 89, (2S)-1-[4-[4-[(5-fluoro-4-imidazo[1,2-a]pyridin-3-yl-pyrimidin-2-yl)amino]-3-methoxy-phenyl]piperazin-1-yl]propan-2-ol]",34 nM
6,"COc1cc(O[C@@H]2CCN(S(C)(=O)=O)C2)ccc1Nc1ncc(Cl)c(-c2cnc3ccccn23)n1 [Example 11, 5-chloro-4-imidazo[1,2-a]pyridin-3-yl-N-[2-methoxy-4-[(3R)-1-methylsulfonylpyrrolidin-3-yl]oxy-phenyl]pyrimidin-2-amine]",18 nM
7,"COc1ccc(N2CCC(OC)CC2)cc1Nc1ncc(F)c(-c2cnc3ccccn23)n1 [Example 77, 5-fluoro-4-imidazo[1,2-a]pyridin-3-yl-N-[2-methoxy-5-(4-methoxy-1-piperidyl)phenyl]pyrimidin-2-amine]",184 nM
8,"COc1cc(N2CCN(C(C)(C)CO)CC2)ccc1Nc1ncc(Cl)c(-c2cnc3ccc(F)cn23)n1 [Example 259, 2-[4-[4-[[5-chloro-4-(6-fluoroimidazo[1,2-a]pyridin-3-yl)pyrimidin-2-yl]amino]-3-methoxy-phenyl]piperazin-1-yl]-2-methyl-propan-1-ol]",4 nM
9,"COc1cc(N2CCN(C[C@H](O)CO)CC2)ccc1Nc1ncc(C)c(-c2cnc3ccccn23)n1 [Example 268, (2S)-3-[4-[4-[(4-imidazo[1,2-a]pyridin-3-yl-5-methyl-pyrimidin-2-yl)amino]-3-methoxy-phenyl]piperazin-1-yl]propane-1,2-diol]",23 nM
10,"COc1cc(N2CCN(C(=O)[C@@H](C)O)CC2)ccc1Nc1ncc(Cl)c(-c2cnn3ccccc23)n1 [Example 131, (2R)-1-[4-[4-[(5-chloro-4-pyrazolo[1,5-a]pyridin-3-yl-pyrimidin-2-yl)amino]-3-methoxy-phenyl]piperazin-1-yl]-2-hydroxy-propan-1-one]",3 nM
11,"COc1cc(N2CC3CN(C(=O)[C@@H](N)CO)CC(C2)O3)ccc1Nc1ncc(Cl)c(-c2cnc3c(F)cccn23)n1 [Example 210, (2S)-2-amino-1-[7-[4-[[5-chloro-4-(8-fluoroimidazo[1,2-a]pyridin-3-yl)pyrimidin-2-yl]amino]-3-methoxy-phenyl]-9-oxa-3,7-diazabicyclo[3.3.1]nonan-3-yl]-3-hydroxy-propan-1-one]",36 nM
12,"COc1cc(OC2CCN(C(C)=O)CC2)ccc1Nc1ncc(C)c(-c2cnc3ccccn23)n1 [Example 103, 1-[4-[4-[(4-imidazo[1,2-a]pyridin-3-yl-5-methyl-pyrimidin-2-yl)amino]-3-methoxy-phenoxy]-1-piperidyl]ethanone]",77 nM
13,"CNCC(=O)N1CC2CN(c3ccc(Nc4ncc(Cl)c(-c5cnc6c(F)cccn56)n4)c(OC)c3)CC(C1)O2 [Example 208, 1-[3-[4-[[5-chloro-4-(8-fluoroimidazo[1,2-a]pyridin-3-yl)pyrimidin-2-yl]amino]-3-methoxy-phenyl]-9-oxa-3,7-diazabicyclo[3.3.1]nonan-7-yl]-2-(methylamino)ethanone]",26 nM
14,"COc1cc(N2CCNCC2=O)ccc1Nc1ncc(Cl)c(-c2cnc3c(F)cccn23)n1 [Example 224, 1-[4-[[5-chloro-4-(8-fluoroimidazo[1,2-a]pyridin-3-yl)pyrimidin-2-yl]amino]-3-methoxy-phenyl]piperazin-2-one]",3 nM
15,"COc1cc(N2CC3CN(C(=O)[C@@H](C)O)CC(C2)O3)ccc1Nc1ncc(Cl)c(-c2cnc3c(F)cccn23)n1 [Example 214, (2R)-1-[3-[4-[[5-chloro-4-(8-fluoroimidazo[1,2-a]pyridin-3-yl)pyrimidin-2-yl]amino]-3-methoxy-phenyl]-9-oxa-3,7-diazabicyclo[3.3.1]nonan-7-yl]-2-hydroxy-propan-1-one]",18 nM
16,"COc1cc(N2CCN(C(C)=O)CC2)ccc1Nc1ncc(F)c(-c2cnc3ccccn23)n1 [Example 72, 1-[4-[4-[(5-fluoro-4-imidazo[1,2-a]pyridin-3-yl-pyrimidin-2-yl)amino]-3-methoxy-phenyl]piperazin-1-yl]ethanone]",96 nM
17,"COc1cc(N2CCN(C(C)=O)CC2)ccc1Nc1ncc(OC)c(-c2cnc3ccccn23)n1 [Example 92, 1-[4-[4-[(4-imidazo[1,2-a]pyridin-3-yl-5-methoxy-pyrimidin-2-yl)amino]-3-methoxy-phenyl]piperazin-1-yl]ethanone]",90 nM
18,"COc1cc(C2CCN(C(C)=O)CC2)ccc1Nc1ncc(C#N)c(-c2cnn3ccccc23)n1 [Example 239, 2-[4-(1-acetyl-4-piperidyl)-2-methoxy-anilino]-4-pyrazolo[1,5-a]pyridin-3-yl-pyrimidine-5-carbonitrile]",110 nM

# Second part, the molecule after the results:
row,IC50,Structure (SMILES)
1,43 nM,"COc1ccc(N2CCC(OC)CC2)cc1Nc1ncc(Cl)c(-c2cnc3ccccn23)n1 [Example 3.20, 5-chloro-4-imidazo[1,2-a]pyridin-3-yl-N-[2-methoxy-5-(4-methoxy-1-piperidyl)phenyl]pyrimidin-2-amine]"
2,18 nM,"COc1cc(N2CC[C@@H](NC(C)=O)C2)ccc1Nc1ncc(Cl)c(-c2cnc3ccccn23)n1 [Example 3.23, N-((3R)-1-(4-(5-chloro-4-(imidazo[1,2-a]pyridin-3-yl)pyrimidin-2-ylamino)-3-methoxyphenyl)pyrrolidin-3-yl)acetamide]"
3,24 nM,"COc1cc(N2CCN(C(C)=O)C[C@@H](O)C2)ccc1Nc1ncc(Cl)c(-c2cnc3ccccn23)n1 [Example 3.40, 1-[(6S)-4-[4-[(5-chloro-4-imidazo[1,2-a]pyridin-3-yl-pyrimidin-2-yl)amino]-3-methoxy-phenyl]-6-hydroxy-1,4-diazepan-1-yl]ethanone]"
4,31 nM,"COc1cc(CN2CCC(C(N)=O)CC2)ccc1Nc1ncc(Cl)c(-c2cnc3ccccn23)n1 [Example 21.7, 1-[[4-[(5-chloro-4-imidazo[1,2-a]pyridin-3-yl-pyrimidin-2-yl)amino]-3-methoxy-phenyl]methyl]piperidine-4-carboxamide]"
5,32 nM,"COc1cc(N2CC[C@H](O)C2)ccc1Nc1ncc(Cl)c(-c2cnc3ccccn23)n1 [Example 3.47, (3S)-1-[4-[(5-chloro-4-imidazo[1,2-a]pyridin-3-yl-pyrimidin-2-yl)amino]-3-methoxy-phenyl]pyrrolidin-3-ol]"
6,41 nM,"COc1ccc(N2CC[C@@H](O)C2)cc1Nc1ncc(Cl)c(-c2cnc3ccccn23)n1 [Example 3.18, (3R)-1-[3-[(5-chloro-4-imidazo[1,2-a]pyridin-3-yl-pyrimidin-2-yl)amino]-4-methoxy-phenyl]pyrrolidin-3-ol]"
7,37 nM,"COc1cc(CN(C)CCO)ccc1Nc1ncc(Cl)c(-c2cnc3ccccn23)n1 [Example 21.2, 2-[[4-[(5-chloro-4-imidazo[1,2-a]pyridin-3-yl-pyrimidin-2-yl)amino]-3-methoxy-phenyl]methyl-methyl-amino]ethanol]"
8,69 nM,"COc1cc(N2CC[C@@H](N(C)C)C2)ccc1Nc1ncc(Cl)c(-c2cnc3ccccn23)n1 [Example 3.11, 5-chloro-N-[4-[(3R)-3-dimethylaminopyrrolidin-1-yl]-2-methoxy-phenyl]-4-imidazo[1,2-a]pyridin-3-yl-pyrimidin-2-amine]"
9,28 nM,"COc1cc(CN2CCC(O)CC2)ccc1Nc1ncc(Cl)c(-c2cnc3ccccn23)n1 [Example 21.5, 1-[[4-[(5-chloro-4-imidazo[1,2-a]pyridin-3-yl-pyrimidin-2-yl)amino]-3-methoxy-phenyl]methyl]piperidin-4-ol]"
10,12 nM,"CC(=O)N1CCN(c2ccc(Nc3ncc(Cl)c(-c4cnc5ccccn45)n3)c(C)c2C)CC1 [Example 3.32, 1-[4-[4-[(5-chloro-4-imidazo[1,2-a]pyridin-3-yl-pyrimidin-2-yl)amino]-2,3-dimethyl-phenyl]piperazin-1-yl]ethanone]"
11,7 nM,"COc1cc(N2CCN(C(=O)[C@@H](N)CC(N)=O)CC2)ccc1Nc1ncc(Cl)c(-c2cnc3ccccn23)n1 [Example 24.8, (3S)-3-amino-4-[4-[4-[(5-chloro-4-imidazo[1,2-a]pyridin-3-yl-pyrimidin-2-yl)amino]-3-methoxy-phenyl]piperazin-1-yl]-4-oxo-butanamide]"
12,25 nM,"COc1cc(C(C)C(=O)N2CCNCC2)ccc1Nc1ncc(Cl)c(-c2cnc3ccccn23)n1 (stereo not shown) [Example 3.42, 2-[4-[(5-chloro-4-imidazo[1,2-a]pyridin-3-yl-pyrimidin-2-yl)amino]-3-methoxy-phenyl]-1-piperazin-1-yl-propan-1-one]"
